Test results published in US12186331B2, “Compositions comprising at least one n-acetylated and at least one fucosylated oligosaccharide for use in the promotion of digestive capacity in infants and young children” (SOCIETE DES PRODUITS NESTLE S.A., priority 2017, dated 2025).
Entries after “also recorded” stand apart in the source; their conditions may differ.

Test system: villi in the ileum of IUGR rats
Assay: Villi length in the ileum of young rats with intra-uterine growth retardation (IUGR) fed HMO-supplemented diet
Format: in vivo, Sprague-Dawley rats
Details: IUGR rat pups, 3 g/kg body weight by gavage d7-d21, 4.5% in diet d22-d57, sacrifice at day 57, compared with IUGR group and other groups
Text: Three groups of time-mated pregnant Sprague-Dawley female rats were bought from Charles River laboratories. One group was submitted to food restriction of 60% during the last 10 days of gestation and their offspring were cross-fostered to normally fed rats. A second group of pregnant females was normally fed and their offspring cross-fostered among the same group of dams. […] Normal-weight offspring born from unrestricted dams and fed a normal non-supplemented diet; • IUGR group (negative control; n=20): IUGR rats being fed a normal diet after birth; • IUGR rats+HMO (test groups): During the experiment, they were reared by their mothers for 21 days and supplemented with HMOs (2FL, LNnT or the Mix of 2FL and LNnT). At weaning, they were fed a diet supplemented with the same HMOs, see details below. […] All rat pups were fed from birth (d=1) up to 57 days (d=57) based on the following protocol: • d1 to d6: all groups of rats were nursed by dam (mothers' milk only); • d7 to d21: all rats were nursed by dam (mothers' milk only). But in the test groups, 3 g/kg body weight of HMO were also administered by gavage: • 3 g/kg body weight of 2FL, for the IUGR/2FL group; • 3 g/kg body weight of LNnT, for the IUGR/LNnT group; • 3 g/kg body weight of a mix of LNnT and 2FL at a 1:2 weight ratio, for the IUGR/HMOs mix group; • […] to […]: all rats were fed a diet as detailed in Table 2 below. Rats were sacrificed at day 57 after a 6-hr fasting period and samples of the small intestine were collected. The length of the villi was measured on a sample of the ileum. One 1-cm sample from the ileum (1 cm cranial from caecum) was collected and flushed with PBS (Sigma D8537). This section was fixed and processed accordingly for histological and morphometric analysis. Two consecutive 4 μm-thick sections of fixed tissue were stained manually with hematoxylin and eosin to determine villus height. […] Ten randomly selected villi were measured in two different segments to determine the mean villi length.

Molecule | mean villi length in the ileum | mean villi length in the ileum (listed as 2-FL)
2′-fucosyllactose [2FL] | neither 2FL, nor LNnT achieved a statistically significant effect when used alone | no significant difference with the IUGR group
CC(=O)N[C@H]1[C@H](O[C@H]2[C@@H](O)[C@@H](CO)O[C@@H](O[C@H]3[C@H](O)[C@@H](O)C(O)O[C@@H]3CO)[C@@H]2O)O[C@H](CO)[C@@H](O[C@@H]2O[C@H](CO)[C@H](O)[C@H](O)[C@H]2O)[C@@H]1O (mixture of isomers) [LNnT, lacto-N-neotetraose] | neither 2FL, nor LNnT achieved a statistically significant effect when used alone; also recorded: no significant difference with the IUGR group | 
